Measurements published in patent US10039776B2, “Hepato-protective beverage composition” (priority 2013, dated 2018).

How the values were obtained:
[1] = system: Male Wistar albino rats, alcohol induced sub-acute hepatotoxicity; assay: Alcohol induced sub-acute hepatotoxicity in rats: evaluation of hepato-protective activity (% protection, % synergism); assay type: in vivo
Source text: • 1. Hepato-protection: the ability to reduce stress and prevent damage to the liver. • 2. Synergistic hepato-protective effect: where the net hepato-protective effect of a combination is greater than the sum of the hepato-protective effects of the parts. • 3. Primary hepato-protective agent; 18α-Glycyrrhizin, 18β-Glycyrrhizin, or a combination thereof. • 4. Complimentary hepato-protective agent: sugar, sugar alcohol, or a combination thereof. • 5. Effective amount: the amount of each hepato-protective agent that must be included in a beverage to result in a net hepato-protective synergistic effect. Effective amounts include: • a. For 18α-Glycyrrhizin, a mass concentration range of 0.04% to 1.0%. • b. For 18β-Glycyrrhizin, a mass concentration range of 0.04% to 1.0%. • c. For sugar, a mass concentration range of 0.5% to 3.5%. • d. For sugar alcohol, a mass concentration range of 0.5% to 3.5%. • 6. Effective proportion: the proportional amount of how many units of complimentary hepato-protective agent should be added per unit of primary hepato-protective agent to result in a hepato-protective synergistic effect. An effective proportion is in the range of 1:2 to 175:2 (units of complimentary hepato-protective agent to units of primary hepato-protective agent). […] All animal experiments were conducted for a period of one month by per oral administration of 2.5 g/kg dose of alcohol.
The following tables 10 and 11 further illustrate hepatoprotective activity of the supplied alcoholic formulations in comparison with standard alcoholic drink in rat model, when fed orally for 4 weeks and also illustrate any synergistic effect of the ingredients. Hepatoprotection (HP) Calculation % Protection=1−[(T-NS)/(AL-NS)]×100 T=Mean value of drug treated, NS=Mean value of normal control, AL=Mean value of alcohol alone
Distilled ethanol was obtained from Bengal Chemicals, West Bengal, India, Biochemical kits like AST, ALT, ALKP and total protein were obtained from Span Diagnostics Ltd. Surat, India. Time course study of oxidative and nitrosative stress and antioxidant enzymes in K2Cr2O7-induced nephrotoxicity. BMC Nephrol., 6:4], TNF-α was estimated by standard procedures as mentioned in Rat TNF-α ELIS A kit (BioLegend, Inc. San Diego, Calif. USA).
Male Wistar albino rats weighing 150-200 g are procured from local registered traders (CPCSEA Regd No. 1443/po/6/4/CPCSEA), Kolkata, India, and were acclimatized for 7 days at standard housing condition (26° C.±2° C., 60-70% RFT with 12±1 hours light and dark cycle). Animals were fed with commercially available diet (Upton India Pvt. Ltd, India) and water ad-libitum during the experiment period.
Male Wistar albino rats weighing 150-200 g are procured and randomly divided into groups consisting of six animals in each group. Sub-acute toxicity is induced by alcohol in rats by oral administration of 25% alcohol (2.5 gm/kg/day, p.o.) for 28 days and this group served as the negative control and the positive control group received distilled water only.
All drug solutions were prepared in 15-40% aqueous alcohol, adjusting the pH in the range of 4.0-9.0 for evaluation of hepato-protective activity. This solution is further diluted with distilled water to obtain 25% aqueous alcoholic solution and administered orally by gavage to different rats group of step (a).
On day 28th day the animals are anaesthetized with ether and blood samples are collected by cardiac puncture and the serum is used for the assay of marker enzymes serum alanine aminotransferase (ALT), aspartate aminotransferase (AS′T), alkaline phosphatase (ALP). The rats are sacrificed by exposure to an overdose of ether, immediately after the collection of blood; their livers are removed, washed in cold saline. Part of the liver is used for preparation of liver homogenate in phosphate buffer (pH 7.4). […]

[2] = cited from earlier work
[3] = system: superoxide dismutase (SOD); conditions: erythritol-added group; cited from earlier work
[4] = sugar alcohol or sugar alone at 1%, alcohol 2.5 g/kg p.o. one month
[5] = sugar alcohol or sugar alone at 2.5%, alcohol 2.5 g/kg p.o. one month

18β-Glycyrrhizin [Sample Code D]
TNF-α % Prot. ([1]; alcohol 2.5 g/kg/day p.o. 28 days, composition fixed by sample/example, listed as Example 4): 7.64% | GSH % Prot. ([1]; alcohol 2.5 g/kg/day p.o. 28 days, liver homogenate, composition fixed by sample/example, listed as Example 4): 3.29% | MDA % Prot. ([1]; hepatic MDA, alcohol 2.5 g/kg/day p.o. 28 days, composition fixed by sample/example, listed as Example 4): 15.97% | SOD etc % Prot. ([1]; mean of SOD, CAT and GPx, alcohol 2.5 g/kg/day p.o. 28 days, composition fixed by sample/example, listed as Example 4): 11.45% | ALT etc % Prot. ([1]; mean of serum ALT, AST and ALKP, alcohol 2.5 g/kg/day p.o. 28 days, composition fixed by sample/example, listed as Example 4): 8.38%

OC[C@H]1O[C@@](CO)(O[C@H]2O[C@H](CO)[C@@H](O)[C@H](O)[C@H]2O)[C@@H](O)[C@@H]1O [Suc, Sucrose]
ALT etc % Prot. [1, 4]: 6.70% | GSH % Prot. [1, 4]: 6% | MDA % Prot. [1, 4]: 8.27% | SOD etc % Prot. [1, 4]: 5.16% | TNF-α % Prot. [1, 4]: 6.13% | ALT etc % Prot. [1, 5]: 13.89% | GSH % Prot. [1, 5]: 11.63% | MDA % Prot. [1, 5]: 18.92% | SOD etc % Prot. [1, 5]: 10.49% | TNF-α % Prot. [1, 5]: 14.18%

OC[C@@H](O)[C@@H](O)[C@H](O)[C@H](O)CO [Sample Code C, D-Mannitol]
TNF-α % Prot. ([1]; alcohol 2.5 g/kg/day p.o. 28 days, composition fixed by sample/example, listed as 3): 16.74% | TNF-α % Prot. ([1]; alcohol 2.5 g/kg/day p.o. 28 days, composition fixed by sample/example, listed as Example 3): 31.46% | GSH % Prot. ([1]; alcohol 2.5 g/kg/day p.o. 28 days, liver homogenate, composition fixed by sample/example, listed as 3): 20.06% | GSH % Prot. ([1]; alcohol 2.5 g/kg/day p.o. 28 days, liver homogenate, composition fixed by sample/example, listed as Example 3): 31.53% | MDA % Prot. ([1]; hepatic MDA, alcohol 2.5 g/kg/day p.o. 28 days, composition fixed by sample/example, listed as 3): 31.63% | MDA % Prot. ([1]; hepatic MDA, alcohol 2.5 g/kg/day p.o. 28 days, composition fixed by sample/example, listed as Example 3): 50.80% | SOD etc % Prot. ([1]; mean of SOD, CAT and GPx, alcohol 2.5 g/kg/day p.o. 28 days, composition fixed by sample/example, listed as 3): 19.32% | SOD etc % Prot. ([1]; mean of SOD, CAT and GPx, alcohol 2.5 g/kg/day p.o. 28 days, composition fixed by sample/example, listed as Example 3): 35.83% | ALT etc % Prot. ([1]; mean of serum ALT, AST and ALKP, alcohol 2.5 g/kg/day p.o. 28 days, composition fixed by sample/example, listed as 3): 70.37% | ALT etc % Prot. ([1]; mean of serum ALT, AST and ALKP, alcohol 2.5 g/kg/day p.o. 28 days, composition fixed by sample/example, listed as Example 3): 29.71%

OC[C@H]1O[C@@H](O[C@H]2[C@H](O)[C@@H](O)C(O)O[C@@H]2CO)[C@H](O)[C@@H](O)[C@H]1O (stereo partly drawn) [Lac, Lactose]
ALT etc % Prot. [1, 4]: 8.21% | GSH % Prot. [1, 4]: 4.36% | MDA % Prot. [1, 4]: 7.70% | SOD etc % Prot. [1, 4]: 6.78% | TNF-α % Prot. [1, 4]: 8.19% | ALT etc % Prot. [1, 5]: 17.41% | MDA % Prot. [1, 5]: 21.47% | SOD etc % Prot. [1, 5]: 17.38% | TNF-α % Prot. [1, 5]: 15.26%

CCO [ethanol]
time to peak blood alcohol concentration ([2]; fasting state): ≤ 30 min | ingested alcohol degraded to acetaldehyde ([2]; human being): 95% | ingested alcohol excreted unchanged ([2]; human being): 5% | share of alcohol metabolism accounted for by liver ([2]; in vivo): ~90% | alcohol metabolized per hour ([2]; typical adult, printed 'g of alcohol, hour'): 7 to 10 g

OC[C@@H](O)[C@@H](O)[C@H](O)[C@H](O)CO [Sample Code A, D-Mannitol]
TNF-α % Prot. ([1]; alcohol 2.5 g/kg/day p.o. 28 days, composition fixed by sample/example, listed as Example 2): 7.19% | GSH % Prot. ([1]; alcohol 2.5 g/kg/day p.o. 28 days, liver homogenate, composition fixed by sample/example, listed as Example 2): 10.35% | MDA % Prot. ([1]; hepatic MDA, alcohol 2.5 g/kg/day p.o. 28 days, composition fixed by sample/example, listed as Example 2): 19.17% | SOD etc % Prot. ([1]; mean of SOD, CAT and GPx, alcohol 2.5 g/kg/day p.o. 28 days, composition fixed by sample/example, listed as Example 2): 12.71% | ALT etc % Prot. ([1]; mean of serum ALT, AST and ALKP, alcohol 2.5 g/kg/day p.o. 28 days, composition fixed by sample/example, listed as Example 2): 12.26%

OC[C@@H](O)[C@@H](O)CO [erythritol]
increase of SOD activity [3]: 2-5 times

O=C[C@H](O)[C@@H](O)[C@H](O)CO [Xyls, Xylose]
ALT etc % Prot. [1, 4]: 8.06% | GSH % Prot. [1, 4]: 6.23% | MDA % Prot. [1, 4]: 6.28% | SOD etc % Prot. [1, 4]: 7.83% | TNF-α % Prot. [1, 4]: 6.44% | ALT etc % Prot. [1, 5]: 14.73% | GSH % Prot. [1, 5]: 11.84% | MDA % Prot. [1, 5]: 15.38% | SOD etc % Prot. [1, 5]: 19.1% | TNF-α % Prot. [1, 5]: 13.98%

OC[C@@H](O)[C@H](O)[C@@H](O)CO [Xyl, D-Xylitol]
ALT etc % Prot. [1, 4]: 17.62% | GSH % Prot. [1, 4]: 19.76% | MDA % Prot. [1, 4]: 26.9% | SOD etc % Prot. [1, 4]: 18.91% | TNF-α % Prot. [1, 4]: 15.77% | ALT etc % Prot. [1, 5]: 26.72% | GSH % Prot. [1, 5]: 35.57% | MDA % Prot. [1, 5]: 45.38% | SOD etc % Prot. [1, 5]: 36.88% | TNF-α % Prot. [1, 5]: 30.05%

OC[C@@H](O)[C@@H](O)CO [Ery, D-Erythritol]
ALT etc % Prot. [1, 4]: 17.84% | GSH % Prot. [1, 4]: 18.71% | MDA % Prot. [1, 4]: 24.71% | SOD etc % Prot. [1, 4]: 17.94% | TNF-α % Prot. [1, 4]: 16.57% | ALT etc % Prot. [1, 5]: 32.13% | GSH % Prot. [1, 5]: 37.29% | MDA % Prot. [1, 5]: 48.61% | SOD etc % Prot. [1, 5]: 36.29% | TNF-α % Prot. [1, 5]: 35.96%
